# Experimental data from ChEMBL document CHEMBL4382229, “Benzofuran derivatives and their anti-tubercular, anti-bacterial activities” (Eur J Med Chem, 2019).
# Tested on: Bacillus subtilis
# Assay: Antibacterial activity against Bacillus subtilis MTCC 1134 after 24 hrs by broth dilution method
# Assay type: functional
# Details: MTCC 1134, 24 h
row,SMILES,MIC [µg/mL]
1,Cc1ccc(-c2cc(-c3cc4cc(Br)ccc4o3)nc(O)n2)s1,4.32 to 18.4
2,Sc1nc(-c2cc3cc(Br)ccc3o2)cc(-c2cccs2)n1,4.32 to 18.4
3,Cc1ccc(-c2cc(-c3cc4cc(Br)ccc4o3)nc(N)n2)s1,4.32 to 18.4
4,Oc1nc(-c2cc3ccccc3o2)cc(-c2cccs2)n1,4.32 to 18.4
5,Nc1nc(-c2cc3cc(Br)ccc3o2)cc(-c2cccs2)n1,4.32 to 18.4
6,Cc1ccc(-c2cc(-c3cc4cc(Br)ccc4o3)nc(S)n2)s1,4.32 to 18.4

# Tested on: Escherichia coli
# Assay: Antibacterial activity against Escherichia coli MTCC 1559 after 24 hrs by broth dilution method
# Assay type: functional
# Details: MTCC 1559, 24 h
row,SMILES,MIC [µg/mL]
1,Cc1ccc(-c2cc(-c3cc4cc(Br)ccc4o3)nc(O)n2)s1,4.32 to 18.4
2,Sc1nc(-c2cc3cc(Br)ccc3o2)cc(-c2cccs2)n1,4.32 to 18.4
3,Cc1ccc(-c2cc(-c3cc4cc(Br)ccc4o3)nc(N)n2)s1,4.32 to 18.4
4,Oc1nc(-c2cc3ccccc3o2)cc(-c2cccs2)n1,4.32 to 18.4
5,Nc1nc(-c2cc3cc(Br)ccc3o2)cc(-c2cccs2)n1,4.32 to 18.4
6,Cc1ccc(-c2cc(-c3cc4cc(Br)ccc4o3)nc(S)n2)s1,4.32 to 18.4

# Tested on: Staphylococcus aureus
# Assay: Antibacterial activity against Staphylococcus aureus NCIM 2079 assessed as zone of inhibition at 1 ug/ml after 24 hrs by agar diffusion method
# Assay type: functional
# Details: NCIM 2079, 24 h, read-out: IZ
row,SMILES,zone of inhibition at 1 µg/mL [mm]
1,NNC(=O)c1cc(-c2cc3cc(Br)ccc3o2)n(-c2ccccc2)n1,9 to 30
2,COC(=O)c1cc(-c2oc3c(Cl)cc(Cl)cc3c2C)[nH]n1,19 to 30
3,COC(=O)c1cc(-c2cc3cc(Br)ccc3o2)n(-c2ccccc2)n1,9 to 30
4,Cc1c(-c2cc(C(=O)NN)nn2-c2ccccc2)oc2ccc(Cl)cc12,9 to 30
5,COC(=O)c1cc(-c2cc3ccccc3o2)n(C(N)=O)n1,9 to 30
6,CCOC(=O)c1cc(-c2oc3c(Cl)cc(Cl)cc3c2C)on1,9 to 30
7,Cc1c(-c2cc(C(=O)NN)nn2-c2ccccc2)oc2c(Cl)cc(Cl)cc12,9 to 30
8,COC(=O)c1cc(-c2oc3c(Cl)cc(Cl)cc3c2C)n(C(N)=O)n1,9 to 30
9,COC(=O)c1cc(-c2cc3ccccc3o2)n(-c2ccccc2)n1,9 to 30
10,CCOC(=O)c1cc(-c2cc3cc(Br)ccc3o2)on1,9 to 30
11,NNC(=O)c1cc(-c2cc3ccccc3o2)n(-c2ccccc2)n1,9 to 30
12,COC(=O)c1cc(-c2oc3c(Cl)cc(Cl)cc3c2C)n(-c2ccccc2)n1,9 to 30
13,COC(=O)c1cc(-c2cc3cc(Br)ccc3o2)[nH]n1,9 to 30
14,COC(=O)c1cc(-c2cc3ccccc3o2)[nH]n1,9 to 30
15,COC(=O)c1cc(-c2oc3ccc(Cl)cc3c2C)[nH]n1,9 to 30
16,COC(=O)c1cc(-c2oc3ccc(Cl)cc3c2C)n(C(N)=O)n1,9 to 30
17,CCOC(=O)c1cc(-c2oc3ccc(Cl)cc3c2C)on1,9 to 30
18,CCOC(=O)c1cc(-c2cc3ccccc3o2)on1,9 to 30
19,COC(=O)c1cc(-c2cc3cc(Br)ccc3o2)n(C(N)=O)n1,9 to 30
20,COC(=O)c1cc(-c2oc3ccc(Cl)cc3c2C)n(-c2ccccc2)n1,9 to 30

# Tested on: Pseudomonas aeruginosa
# Assay: Antibacterial activity against Pseudomonas aeruginosa NCIB 8650 assessed as zone of inhibition at 1 ug/ml after 24 hrs by agar diffusion method
# Assay type: functional
# Details: NCIB 8650, 24 h, read-out: IZ
row,SMILES,zone of inhibition at 1 µg/mL [mm]
1,NNC(=O)c1cc(-c2cc3cc(Br)ccc3o2)n(-c2ccccc2)n1,9 to 30
2,COC(=O)c1cc(-c2oc3c(Cl)cc(Cl)cc3c2C)[nH]n1,19 to 30
3,COC(=O)c1cc(-c2cc3cc(Br)ccc3o2)n(-c2ccccc2)n1,9 to 30
4,Cc1c(-c2cc(C(=O)NN)nn2-c2ccccc2)oc2ccc(Cl)cc12,9 to 30
5,COC(=O)c1cc(-c2cc3ccccc3o2)n(C(N)=O)n1,9 to 30
6,CCOC(=O)c1cc(-c2oc3c(Cl)cc(Cl)cc3c2C)on1,9 to 30
7,Cc1c(-c2cc(C(=O)NN)nn2-c2ccccc2)oc2c(Cl)cc(Cl)cc12,9 to 30
8,COC(=O)c1cc(-c2oc3c(Cl)cc(Cl)cc3c2C)n(C(N)=O)n1,9 to 30
9,COC(=O)c1cc(-c2cc3ccccc3o2)n(-c2ccccc2)n1,9 to 30
10,CCOC(=O)c1cc(-c2cc3cc(Br)ccc3o2)on1,9 to 30
11,NNC(=O)c1cc(-c2cc3ccccc3o2)n(-c2ccccc2)n1,9 to 30
12,COC(=O)c1cc(-c2oc3c(Cl)cc(Cl)cc3c2C)n(-c2ccccc2)n1,9 to 30
13,COC(=O)c1cc(-c2cc3cc(Br)ccc3o2)[nH]n1,9 to 30
14,COC(=O)c1cc(-c2cc3ccccc3o2)[nH]n1,9 to 30
15,COC(=O)c1cc(-c2oc3ccc(Cl)cc3c2C)[nH]n1,9 to 30
16,COC(=O)c1cc(-c2oc3ccc(Cl)cc3c2C)n(C(N)=O)n1,9 to 30
17,CCOC(=O)c1cc(-c2oc3ccc(Cl)cc3c2C)on1,9 to 30
18,CCOC(=O)c1cc(-c2cc3ccccc3o2)on1,9 to 30
19,COC(=O)c1cc(-c2cc3cc(Br)ccc3o2)n(C(N)=O)n1,9 to 30
20,COC(=O)c1cc(-c2oc3ccc(Cl)cc3c2C)n(-c2ccccc2)n1,9 to 30

# Tested on: Pseudomonas aeruginosa
# Assay: Antibacterial activity against Pseudomonas aeruginosa MTCC 1034 after 24 hrs by broth dilution method
# Assay type: functional
# Details: MTCC 1034, 24 h
row,SMILES,MIC [µg/mL]
1,Cc1ccc(-c2cc(-c3cc4cc(Br)ccc4o3)nc(O)n2)s1,4.32 to 18.4
2,Sc1nc(-c2cc3cc(Br)ccc3o2)cc(-c2cccs2)n1,4.32 to 18.4
3,Cc1ccc(-c2cc(-c3cc4cc(Br)ccc4o3)nc(N)n2)s1,4.32 to 18.4
4,Oc1nc(-c2cc3ccccc3o2)cc(-c2cccs2)n1,4.32 to 18.4
5,Nc1nc(-c2cc3cc(Br)ccc3o2)cc(-c2cccs2)n1,4.32 to 18.4
6,Cc1ccc(-c2cc(-c3cc4cc(Br)ccc4o3)nc(S)n2)s1,4.32 to 18.4

# Tested on: Bacillus subtilis
# Assay: Antibacterial activity against Bacillus subtilis NCIM 2439 assessed as zone of inhibition at 1 ug/ml after 24 hrs by agar diffusion method
# Assay type: functional
# Details: NCIM 2439, 24 h, read-out: IZ
row,SMILES,zone of inhibition at 1 µg/mL [mm]
1,NNC(=O)c1cc(-c2cc3cc(Br)ccc3o2)n(-c2ccccc2)n1,9 to 30
2,COC(=O)c1cc(-c2oc3c(Cl)cc(Cl)cc3c2C)[nH]n1,19 to 30
3,COC(=O)c1cc(-c2cc3cc(Br)ccc3o2)n(-c2ccccc2)n1,9 to 30
4,Cc1c(-c2cc(C(=O)NN)nn2-c2ccccc2)oc2ccc(Cl)cc12,9 to 30
5,COC(=O)c1cc(-c2cc3ccccc3o2)n(C(N)=O)n1,9 to 30
6,CCOC(=O)c1cc(-c2oc3c(Cl)cc(Cl)cc3c2C)on1,9 to 30
7,Cc1c(-c2cc(C(=O)NN)nn2-c2ccccc2)oc2c(Cl)cc(Cl)cc12,9 to 30
8,COC(=O)c1cc(-c2oc3c(Cl)cc(Cl)cc3c2C)n(C(N)=O)n1,9 to 30
9,COC(=O)c1cc(-c2cc3ccccc3o2)n(-c2ccccc2)n1,9 to 30
10,CCOC(=O)c1cc(-c2cc3cc(Br)ccc3o2)on1,9 to 30
11,NNC(=O)c1cc(-c2cc3ccccc3o2)n(-c2ccccc2)n1,9 to 30
12,COC(=O)c1cc(-c2oc3c(Cl)cc(Cl)cc3c2C)n(-c2ccccc2)n1,9 to 30
13,COC(=O)c1cc(-c2cc3cc(Br)ccc3o2)[nH]n1,9 to 30
14,COC(=O)c1cc(-c2cc3ccccc3o2)[nH]n1,9 to 30
15,COC(=O)c1cc(-c2oc3ccc(Cl)cc3c2C)[nH]n1,9 to 30
16,COC(=O)c1cc(-c2oc3ccc(Cl)cc3c2C)n(C(N)=O)n1,9 to 30
17,CCOC(=O)c1cc(-c2oc3ccc(Cl)cc3c2C)on1,9 to 30
18,CCOC(=O)c1cc(-c2cc3ccccc3o2)on1,9 to 30
19,COC(=O)c1cc(-c2cc3cc(Br)ccc3o2)n(C(N)=O)n1,9 to 30
20,COC(=O)c1cc(-c2oc3ccc(Cl)cc3c2C)n(-c2ccccc2)n1,9 to 30

# Tested on: Escherichia coli
# Assay: Antibacterial activity against Escherichia coli NCIM 2064 assessed as zone of inhibition at 1 ug/ml after 24 hrs by agar diffusion method
# Assay type: functional
# Details: NCIM 2064, 24 h, read-out: IZ
row,SMILES,zone of inhibition at 1 µg/mL [mm]
1,NNC(=O)c1cc(-c2cc3cc(Br)ccc3o2)n(-c2ccccc2)n1,9 to 30
2,COC(=O)c1cc(-c2oc3c(Cl)cc(Cl)cc3c2C)[nH]n1,19 to 30
3,COC(=O)c1cc(-c2cc3cc(Br)ccc3o2)n(-c2ccccc2)n1,9 to 30
4,Cc1c(-c2cc(C(=O)NN)nn2-c2ccccc2)oc2ccc(Cl)cc12,9 to 30
5,COC(=O)c1cc(-c2cc3ccccc3o2)n(C(N)=O)n1,9 to 30
6,CCOC(=O)c1cc(-c2oc3c(Cl)cc(Cl)cc3c2C)on1,9 to 30
7,Cc1c(-c2cc(C(=O)NN)nn2-c2ccccc2)oc2c(Cl)cc(Cl)cc12,9 to 30
8,COC(=O)c1cc(-c2oc3c(Cl)cc(Cl)cc3c2C)n(C(N)=O)n1,9 to 30
9,COC(=O)c1cc(-c2cc3ccccc3o2)n(-c2ccccc2)n1,9 to 30
10,CCOC(=O)c1cc(-c2cc3cc(Br)ccc3o2)on1,9 to 30
11,NNC(=O)c1cc(-c2cc3ccccc3o2)n(-c2ccccc2)n1,9 to 30
12,COC(=O)c1cc(-c2oc3c(Cl)cc(Cl)cc3c2C)n(-c2ccccc2)n1,9 to 30
13,COC(=O)c1cc(-c2cc3cc(Br)ccc3o2)[nH]n1,9 to 30
14,COC(=O)c1cc(-c2cc3ccccc3o2)[nH]n1,9 to 30
15,COC(=O)c1cc(-c2oc3ccc(Cl)cc3c2C)[nH]n1,9 to 30
16,COC(=O)c1cc(-c2oc3ccc(Cl)cc3c2C)n(C(N)=O)n1,9 to 30
17,CCOC(=O)c1cc(-c2oc3ccc(Cl)cc3c2C)on1,9 to 30
18,CCOC(=O)c1cc(-c2cc3ccccc3o2)on1,9 to 30
19,COC(=O)c1cc(-c2cc3cc(Br)ccc3o2)n(C(N)=O)n1,9 to 30
20,COC(=O)c1cc(-c2oc3ccc(Cl)cc3c2C)n(-c2ccccc2)n1,9 to 30
